ChEMBL document CHEMBL1201862, “PubChem BioAssay data set” (2004)
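Cultured in 96-well plates, cells were exposed to test compound for 48 hours across five concentrations. GI50 marks 50% less growth.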 Activity calls are given as the source filed them. Cut-off read from the data, not from the text of the source: active = GI50 up to about 1.1 µM and inactive = higher.

Tests used:
Assay in all cases: DTP human tumour cell line panel, 48 h
HOP-62 = test system: HOP-62
KM12 = test system: KM12
SN12C = test system: SN12C
HOP-92 = test system: HOP-92
SF-295 = test system: SF-295
HL-60 = test system: HL-60
SK-OV-3 = test system: SK-OV-3
MOLT-4 = test system: MOLT-4
COLO 205 = test system: COLO 205
ACHN = test system: ACHN
OVCAR-5 = test system: OVCAR-5
UACC-257 = test system: UACC-257
NCI-H460 = test system: NCI-H460
RPMI-8226 = test system: RPMI-8226
786-0 = test system: 786-0
HT-29 = test system: HT-29
HOP-18 = test system: HOP-18
HCT-116 = test system: HCT-116
UO-31 = test system: UO-31
SR = test system: SR
XF498 = test system: XF498
SK-MEL-28 = test system: SK-MEL-28
OVCAR-8 = test system: OVCAR-8
CAKI-1 = test system: CAKI-1
HCT-15 = test system: HCT-15
SF-539 = test system: SF-539
KM-20L2 = test system: KM-20L2
NCI-H23 = test system: NCI-H23
M14 = test system: M14
RXF 393 = test system: RXF 393
OVCAR-3 = test system: OVCAR-3
SNB-78 = test system: SNB-78
DLD-1 = test system: DLD-1
UACC-62 = test system: UACC-62
RXF 631 = test system: RXF 631
NCI-H522 = test system: NCI-H522
U-251 = test system: U-251
HCC 2998 = test system: HCC 2998
Malme-3M = test system: Malme-3M
DMS-273 = test system: DMS-273
SK-MEL-2 = test system: SK-MEL-2
DMS-114 = test system: DMS-114
LOX IMVI = test system: LOX IMVI
A549 = test system: A549
A498 = test system: A498
SNB-19 = test system: SNB-19
SK-MEL-5 = test system: SK-MEL-5
NCI-H226 = test system: NCI-H226
TK-10 = test system: TK-10
M19-MEL = test system: M19-MEL
K562 = test system: K562
CCRF-CEM = test system: CCRF-CEM
SNB-75 = test system: SNB-75
IGROV-1 = test system: IGROV-1
LXFL 529 = test system: LXFL 529
SF-268 = test system: SF-268

Compound: COCCN1C2=CCCCC2=Nc2c(N)nc(N)nc21
- GI50 (HOP-62): > 100 µM (inactive)
- GI50 (KM12): > 100 µM (inactive)
- GI50 (SN12C): > 100 µM (inactive)
- GI50 (HOP-92): > 100 µM (inactive)
- GI50 (SF-295): > 100 µM (inactive)
- GI50 (HL-60): > 100 µM (inactive)
- GI50 (SK-OV-3): > 100 µM (inactive)
- GI50 (MOLT-4): > 100 µM (inactive)
- GI50 (COLO 205): > 100 µM (inactive)
- GI50 (ACHN): > 100 µM (inactive)
- GI50 (OVCAR-5): > 100 µM (inactive)
- GI50 (UACC-257): > 100 µM (inactive)
- GI50 (NCI-H460): > 100 µM (inactive)
- GI50 (RPMI-8226): > 100 µM (inactive)
- GI50 (786-0): > 100 µM (inactive)
- GI50 (HT-29): > 100 µM (inactive)
- GI50 (HOP-18): > 100 µM (inactive)
- GI50 (HCT-116): > 100 µM (inactive)
- GI50 (UO-31): > 100 µM (inactive)
- GI50 (SR): > 100 µM (inactive)
- GI50 (XF498): > 100 µM (inactive)
- GI50 (SK-MEL-28): > 100 µM (inactive)
- GI50 (OVCAR-8): > 100 µM (inactive)
- GI50 (CAKI-1): > 100 µM (inactive)
- GI50 (HCT-15): > 100 µM
- GI50 (SF-539): > 100 µM (inactive)
- GI50 (KM-20L2): > 100 µM (inactive)
- GI50 (NCI-H23): > 100 µM (inactive)
- GI50 (M14): > 100 µM (inactive)
- GI50 (RXF 393): > 100 µM (inactive)
- GI50 (OVCAR-3): 38 µM (inactive)
- GI50 (SNB-78): > 100 µM (inactive)
- GI50 (DLD-1): > 100 µM (inactive)
- GI50 (UACC-62): > 100 µM (inactive)
- GI50 (RXF 631): > 100 µM (inactive)
- GI50 (NCI-H522): > 100 µM (inactive)
- GI50 (U-251): > 100 µM (inactive)
- GI50 (HCC 2998): > 100 µM (inactive)
- GI50 (Malme-3M): > 100 µM (inactive)
- GI50 (DMS-273): > 100 µM (inactive)
- GI50 (SK-MEL-2): > 100 µM (inactive)
- GI50 (DMS-114): > 100 µM (inactive)
- GI50 (LOX IMVI): > 100 µM (inactive)
- GI50 (A549): > 100 µM (inactive)
- GI50 (A498): > 100 µM (inactive)
- GI50 (SNB-19): > 100 µM (inactive)
- GI50 (SK-MEL-5): > 100 µM (inactive)
- GI50 (NCI-H226): > 100 µM (inactive)
- GI50 (TK-10): > 100 µM (inactive)
- GI50 (M19-MEL): 24.3 µM (inactive)
- GI50 (K562): > 100 µM (inactive)
- GI50 (CCRF-CEM): > 100 µM (inactive)
- GI50 (SNB-75): > 100 µM (inactive)
- GI50 (IGROV-1): > 100 µM (inactive)
- GI50 (LXFL 529): > 100 µM (inactive)
- GI50 (SF-268): > 100 µM (inactive)
